Measured values reported in patent US4663326A, “Pyrazolo[4,3-d]pyrimidine-5,7-(4H,6H)dione or -5-thione-7-one analogs” (Warner-Lambert Company, priority 1985, dated 1987).

Legend:
[1] = target: T1, adenosine receptors (designated A1) (Rattus norvegicus, UniProt P25099); test: Adenosine receptor binding - A1 receptor affinity (RBA1), [3H]-CHA displacement, rat whole brain minus cerebellum and brainstem membranes; parameters: species or system rat (male Long Evans); conditions: 1.0 nM [3H]-CHA, 25° C., pH 7.7; repeat tests (Test 1-4) one line each; read-out: RBA-1 (IC50, adenosine A1 affinity)
T1 construct: Whole brain minus cerebellum and brainstem from male Long Evans rats (150-200 g); from tissue; host or cells: whole brain minus cerebellum and brainstem, male Long Evans rats, membranes
T1 sequence (P25099 1-326): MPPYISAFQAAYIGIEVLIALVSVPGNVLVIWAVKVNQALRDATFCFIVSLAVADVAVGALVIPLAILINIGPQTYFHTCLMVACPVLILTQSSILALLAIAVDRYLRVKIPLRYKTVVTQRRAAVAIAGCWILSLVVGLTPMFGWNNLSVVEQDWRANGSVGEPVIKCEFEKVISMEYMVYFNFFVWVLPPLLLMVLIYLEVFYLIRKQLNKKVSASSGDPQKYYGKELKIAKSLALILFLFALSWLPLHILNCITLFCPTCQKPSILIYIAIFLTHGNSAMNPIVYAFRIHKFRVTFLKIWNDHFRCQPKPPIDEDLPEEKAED
Description: ADENOSINE RECEPTOR BINDING-A1 RECEPTOR AFFINITY (RBA1)
Whole brain minus cerebellum and brainstem from male Long Evans rats (150-200 g) was homogenized in 30 volumes of ice-cold 0.05M Tris-HCl buffer pH 7.7 using a Brinkman Polytron PT-10, (setting number 6 for 20 seconds) and centrifuged for ten minutes at 20,000×g (Sorvall RC-2), 4° C. The supernatant was discarded, and the pellet was resuspended and centrifuged as before. The pellet was resuspended in 20 ml Tris-HCl buffer containing two International Units/ml of adenosine deaminase (Sigma type III from calf intestinal mucosa), incubated at 37° C. for 30 minutes, then subsequently at 0° C. for ten minutes. The homogenate was again centrifuged, and the final pellet was resuspended in ice-cold 0.05M Tris-HCl buffer pH 7.7 to a concentration of 20 mg/ml original wet tissue weight and used immediately.
Tissue homogenate (10 mg/ml) was incubated in 0.05M Tris-HCl buffer pH 7.7 containing 1.0 nM [^3 H]-N^6 -cyclohexyladenosine (^3 H]-CHA) with or without test agents in triplicate for one hour at 25° C. Incubation volume was 2 ml. Unbound [^3 H]-CHA was separated by rapid filtration under reduced pressure through Whatman glass fiber (GF/B) filters. The filters were rinsed three times with 5 ml of ice cold 0.05M Tris-HCl buffer pH 7.7. The radio-labeled ligand retained on the filter was measured by liquid scintillation spectrophotometry after shaking the filters for one hour or longer on a mechanical shaker in 10 ml of Beckman Ready-Solv HP scintillation cocktail.
Nonspecific binding was defined as the binding which occurred in the presence of 1 mM theophylline. The concentration of test agent which inhibited 50% of the specific binding (IC50) was determined by nonlinear computer curve fit. The Scatchard plot was calculated by linear regression of the line obtained by plotting the amount of radioligand bound ([…]) versus [bound radioligand/free radioligand].Since the amount of radioligand bound was a small fraction of the total amount added, free radioligand was defined as the concentration (nM) of radioligand added to the incubation mixture. The Hill coefficient was calculated by linear regression of the line obtained by plotting the log of the bound radioligand vs the log of the [bound radioligand/(Bmax -bound radioligand)]. The maximal number of binding sites (Bmax) was calculated from the Scatchard plot.

[2] = tested on: Type 1 Phosphodiesterase; test: PDE inhibition, Type 1 phosphodiesterase, smooth muscle (bovine coronary arteries); assay type: biochemical; conditions: 1 × 10^-5 M
Text: The method of Thompson, et al (Thompson, W. J., Terasaki, W. L., Epstein, P. M., Strada, S. J., Adv. Cyclic Nucleotide Res., 10:69-92, 1979), with minor modifications, was used to isolate phosphodiesterases from vascular smooth muscle. Bovine coronary arteries (right, anterior descending, and left circumflex arteries) from hearts obtained from a local slaughterhouse were used for these studies. Arteries from two hearts were used for each isolation. Hearts were kept on ice and the arteries were dissected within two hours after the animals were sacrificed. After removing all fat and connective tissue, the arteries were everted, cut into cubes with a single edge razor blade and homogenized with a Brinkman Polytron three times at a rheostat setting of 10.0 in four volumes of the PDE isolation buffer (10 mM Tris-HCl/pH 7.5, 2 mM MgCl2, and 1 mM dithiothreitol). The resulting homogenate was sonicated (30 sec/ml homogenate) and then centrifuged at 30,000×g for 20 minutes. This and all subsequent procedures were performed at 4° C. The resulting supernatant was filtered through four layers of gauze, and applied to a DEAE-cellulose column (30×1.5 cm), prepared as described by Cheung (Cheung, W. Y., Biochim. Biopphys. Acta, 191:303-315, 1969), and equilibrated with freshly prepared 70 mM sodium acetate/5 mM 2-mercaptoethanol (pH 6.5). The column was then washed with 2-3 bed volumes of sodium acetate/2-mercaptoethanol, after which the phosphodiesterases were eluted from the column using a continuous 70-1,000 mM sodium acetate gradient (pH 6.5, containing 5 mM 2-mercaptoethanol; total volume 400 ml). The flow rate was approximately equal to 25 ml/hr. Eight ml fractions were collected and assayed for cyclic AMP- and cyclic GMP-phosphodiesterase activity in the presence and absence of 0.1 units of calmodulin and 10 mM CaCl2. Appropriate fractions were pooled and dialyzed against 70 mM sodium acetate/5 mM 2-mercaptoethanol for 20 hours.
Following complete separation, the combined phosphodiesterase fractions were concentrated to 14% of the original volume using an Amicon ultrafiltration cell fitted with a UM-10 membrane, according to the method of Wells, et al (Wells, J. N., Baird, C. E., Wu, Y. J., Hardman, J. G., Biochim. Biophys. Acta, 384:430-442, 1975). Following concentration, the protein was then diluted to 65% with ethylene glycol monoethyl ether, and stored at -20° C.
Phosphodiesterase activity was measured as described previously (Weishaar, P. E., Quade, M., Boyd, D., Schenden, J., Mark, S. S., Kaplan, H. R., Drug Devel. Res., 3:517-534, 1983), in a reaction medium containing 40 mM Tris-HCl (pH 8.0), 5 mM MgCl and 4 mM 2-mercaptoethanol. Unless otherwise noted, the concentration of substrate (^3 H-cyclic AMP or ^3 H-cyclic GMP) was 1.0 μM. […]

CCn1nc(C)c2[nH]c(=S)[nH]c(=O)c21 [Example 2, 1-Ethyl-1,4,5,6-tetrahydro-3-methyl-pyrazolo[4,3-d]pyrimidine-5-thione-7-on]
IC50 [1]: 19.3 µM
% Inhibition of 3H-cAMP Hydrolysis, Type 1 Phosphodiesterase [2]: N (0-20% inhibition at 1 × 10^-5 M)
% Inhibition of 3H-cGMP Hydrolysis, Type 1 Phosphodiesterase [2]: N (0-20% inhibition at 1 × 10^-5 M)

Cc1nn(C)c2c(=O)[nH]c(=O)[nH]c12 [Example 1, 1,3-Dimethylpyrazolo[4,3-d]pyrimidine-5,7-(4H, 6H)dione]
IC50 [1]: 11 µM
% Inhibition of 3H-cAMP Hydrolysis, Type 1 Phosphodiesterase [2]: N (0-20% inhibition at 1 × 10^-5 M)
% Inhibition of 3H-cGMP Hydrolysis, Type 1 Phosphodiesterase [2]: N (0-20% inhibition at 1 × 10^-5 M)
